Measured values from patent US20080275018A1, “ANTIBACTERIAL AMIDE-MACROCYCLES V” (AiCuris GmbH & Co. KG, priority 2005, published 2008).

Tests used:
E. faecium L4001 = test: Minimum inhibitory concentration (MIC), E. faecium L4001; type: cell-based, Enterococcus faecium; conditions: E. faecium L4001; 10% FCS in test medium
Protocol: The minimum inhibitory concentration (MIC) is the minimum concentration of an antibiotic with which the growth of a test microbe is inhibited over 18-24 h. The inhibitor concentration can in these cases be determined by standard microbiological methods (see, for example, The National Committee for Clinical Laboratory Standards. Methods for dilution antimicrobial susceptibility tests for bacteria that grow aerobically; approved standard-fifth edition. NCCLS document M7-A5 [ISBN 1-56238-394-9]. NCCLS, 940 West Valley Road, Suite 1400, Wayne, Pa. 19087-1898 USA, 2000). The MIC of the compounds of the invention is determined in the liquid dilution test on the 96-well microtiter plate scale. The bacterial microbes are cultivated in a minimal medium (18.5 mM Na2HPO4, 5.7 mM KH2PO4, 9.3 mM NH4Cl, 2.8 mM MgSO4, 17.1 mM NaCl, 0.033 μg/ml thiamine hydrochloride, 1.2 μg/ml nicotinic acid, 0.003 μg/ml biotin, 1% glucose, 25 μg/ml of each proteinogenic amino acid with the exception of phenylalanine; [H.-P. Kroll; unpublished]) with the addition of 0.4% BH broth (test medium). In the case of Enterococcus faecium L4001, heat-inactivated fetal calf serum (FCS; GibcoBRL, Germany) is added to the test medium in a final concentration of 10%. Overnight cultures of the test microbes are diluted to an OD578 of 0.001 (to 0.01 in the case of enterococci) in fresh test medium, and incubated 1:1 with dilutions of the test substances (1:2 dilution steps) in test medium ([…]). The cultures are incubated at 37° C. for 18-24 hours; enterococci in the presence of 5% CO2.
The lowest substance concentration in each case at which no visible bacterial growth occurs any longer is defined as the MIC.

[1] = target: S. aureus 133 Translation; test: S. aureus in vitro transcription-translation assay (firefly luciferase, S30 extract); type: biochemical; conditions: 50% inhibition of the translation of firefly luciferase
Excerpt: For the construction of a reporter plasmid which can be used in an in vitro transcription-translation assay from S. aureus the plasmid pBESTluc (Promega Corporation, USA) is used. The E. coli tac promoter present in this plasmid in front of the firefly luciferase is replaced by the capA1 promoter with corresponding Shine-Dalgarno sequence from S. aureus. The primers CAPFor 5′-[…]-[…] GCCA-3′ and CAPRev 5′-[…]-3′ are used for this. The primer CAPFor contains the capA1 promoter, the ribosome binding site and the 5′ region of the luciferase gene. After PCR using pBESTluc as template it is possible to isolate a PCR product which contains the firefly luciferase gene with the fused capA1 promoter. This is, after restriction with ClaI and HindIII, ligated into the vector pBESTluc which has likewise been digested with ClaI and HindIII. The resulting plasmid pla can be replicated in E. coli and be used as template in the S. aureus in vitro transcription-translation test.
Six litres of BHI medium are inoculated with a 250 ml overnight culture of an S. aureus Strain and allowed to grow at 37° C. until the OD600 nm is 2-4. The cells are harvested by centrifugation and washed in 500 ml of cold buffer A (10 mM Tris acetate, pH 8.0, 14 mM magnesium acetate, 1 mM DTT, 1 M KCl). After renewed centrifugation, the cells are washed in 250 ml of cold buffer A with 50 mM KCl, and the resulting pellets are frozen at −20° C. for 60 min. The pellets are thawed on ice in 30 to 60 min and taken up to a total volume of 99 ml in buffer B (10 mM Tris acetate, pH 8.0, 20 mM magnesium acetate, 1 mM DTT, 50 mM KCl). 1.5 ml portions of lysostaphin (0.8 mg/ml) in buffer B are provided in 3 precooled centrifuge cups and each mixed with 33 ml of the cell suspension. The samples are incubated at 37° C., shaking occasionally, for 45 to 60 min, before 150 μl of a 0.5 M DTT solution are added. The lysed cells are centrifuged at 30 000×g and 4° C. for 30 min. The cell pellet is taken up in buffer B and then centrifuged again under the same conditions, and the collected supernatants are combined. The supernatants are centrifuged again under the same conditions, and 0.25 volumes of buffer C (670 mM Tris acetate, pH 8.0, 20 mM magnesium acetate, 7 mM Na3 phosphoenolpyruvate, 7 mM DTT, 5.5 mM ATP, 70 μM amino acids (complete from Promega), 75 μg of pyruvate kinase (Sigma, Germany)/ml are added to the upper ⅔ of the supernatant. The samples are incubated at 37° C. for 30 min. The supernatants are dialysed against 2 l of dialysis buffer (10 mM Tris acetate, pH 8.0, 14 mM magnesium acetate, 1 mM DTT, 60 mM potassium acetate) in a dialysis tube with a 3500 Da cut-off with one buffer change at 4° C. overnight. The dialysate is concentrated to a protein concentration of about 10 mg/ml by
covering the dialysis tube with cold PEG 8000 powder (Sigma, Germany) at 4° C. The S30 extracts can be stored in aliquots at −70° C.
The inhibition of protein biosynthesis of the compounds can be shown in an in vitro transcription-translation assay. The assay is based on the cell-free transcription and translation of firefly luciferase using the reporter plasmid pla as template and cell-free S30 extracts obtained from S. aureus. The activity of the resulting luciferase can be detected by luminescence measurement.
The amount of S30 extract or plasmid pla to be employed must be tested anew for each preparation in order to ensure an optimal concentration in the test. […] of the substance to be tested, dissolved in 5% DMSO, are introduced into an MTP. Then […] of a suitably concentrated plasmid solution pla are added. […]

## NC[C@H](O)C[C@@H]1NC(=O)[C@@H](N)Cc2cc(ccc2O)-c2ccc(O)c(c2)C[C@@H](C(=O)O)NC1=O [Biphenomycin B, biphenomycin B, reference compound]
E. faecium L4001
  MIC E. faecium L4001: 0.5 μ/ml
[1]
  IC50: 1500 nM
